This note sets out measurements from patent US10766865B2, “PKM2 modulators and methods for their use” (TOLERO PHARMACEUTICALS, INC., priority 2012, dated 2020).

What all share (type): cell-based
The subject of one experiment is HCT116. Description: Cell line sensitivity (viability, ATPlite). Conditions: Homo sapiens, HCT-116; HCT116, Colon; BME media, 72 hours; read-out: Sensitivity to Example 1 (IC50). The protocol: (§1) Viability effect of Example 1 against a subset of lung carcinoma cell lines was determined as follows. Cells were seeded at 1500 cells per well in 384-well plates in BME media, and compound was added in 0.1% DMSO 18 hours later. Viability was determined by ATPlite assay after 72 hours. (See FIG. 4C).
(§2) Example 1 was tested against an expanded panel of cell lines according to the above procedure.
In general terms: Cellular ATP, detected with luciferase, serves as a proxy for viable cell number.

The subject of a further experiment is PL45. Description: Cell line sensitivity (viability, ATPlite). Conditions: PL45, Pancreatic; BME media, 72 hours; read-out: Sensitivity to Example 1 (IC50). The protocol:
as §1, §2

For another experiment, the system named is NCI-H522. Briefly: Cell line sensitivity (viability, ATPlite). The settings on record: Homo sapiens; NCI-H522, Lung; BME media, 72 hours; read-out: Sensitivity to Example 1 (IC50). The protocol:
as §1, §2

The next experiment relates to Malme3M. Description: Cell line sensitivity (viability, ATPlite). The settings on record: Homo sapiens, Malme-3M, Melanoma, BME media, 72 hours, read-out: Sensitivity to Example 1 (IC50). The protocol: as §1, §2
Another experiment relates to SW620. Description: Cell line sensitivity (viability, ATPlite). The settings on record: Homo sapiens, SW-620; SW620, Colon; BME media, 72 hours; read-out: Sensitivity to Example 1 (IC50). The protocol:
as §1, §2

For the next experiment, the system named is Gist882. Briefly: Cell line sensitivity (viability, ATPlite). Conditions: Homo sapiens; Gist882, GIST; BME media, 72 hours; read-out: Sensitivity to Example 1 (IC50). The protocol:
as §1, §2

A further experiment relates to FaDu. Description: Cell line sensitivity (viability, ATPlite). The settings on record: Homo sapiens, Head/Neck, BME media, 72 hours, read-out: Sensitivity to Example 1 (IC50). The protocol: as §1, §2
In another experiment the test system is RKO. Description: Cell line sensitivity (viability, ATPlite). The settings on record: Homo sapiens, Colon, BME media, 72 hours, read-out: Sensitivity to Example 1 (IC50). The protocol: as §1, §2
In another experiment the test system is HCT15. Description: Cell line sensitivity (viability, ATPlite). The settings on record: Homo sapiens, HCT-15; HCT15, Colon; BME media, 72 hours; read-out: Sensitivity to Example 1 (IC50). The protocol:
as §1, §2

Another experiment deals with A172. Description: Cell line sensitivity (viability, ATPlite). The settings on record: Homo sapiens, A 172; A172, Brain; BME media, 72 hours; read-out: Sensitivity to Example 1 (IC50). The protocol:
as §1, §2

The next experiment concerns Skov3. Description: Cell line sensitivity (viability, ATPlite). Conditions: Homo sapiens, SK-OV-3; Skov3, Ovarian; BME media, 72 hours; read-out: Sensitivity to Example 1 (IC50). The protocol: as §1, §2
The subject of the next experiment is LNCaP. Briefly: Cell line sensitivity (viability, ATPlite). Conditions: Homo sapiens, Prostate, BME media, 72 hours, read-out: Sensitivity to Example 1 (IC50). The protocol:
as §1, §2

The subject of a further experiment is HT29. Briefly: Cell line sensitivity (viability, ATPlite). Conditions: Homo sapiens, HT-29; HT29, Colon; BME media, 72 hours; read-out: Sensitivity to Example 1 (IC50). The protocol: as §1, §2
Another experiment concerns OVCAR-3. Description: Cell line sensitivity (viability, ATPlite). Conditions: Homo sapiens; OVCAR-3, Ovarian; BME media, 72 hours; read-out: Sensitivity to Example 1 (IC50). The protocol: as §1, §2
A further experiment concerns UMUC-3. Briefly: Cell line sensitivity (viability, ATPlite). The settings on record: Homo sapiens, UMUC3; UMUC-3, Bladder; BME media, 72 hours; read-out: Sensitivity to Example 1 (IC50). The protocol: as §1, §2
Another experiment relates to Caki-1. Briefly: Cell line sensitivity (viability, ATPlite). Conditions: Homo sapiens; Caki-1, Kidney; BME media, 72 hours; read-out: Sensitivity to Example 1 (IC50). The protocol:
as §1, §2

In another experiment the test system is SW948. Description: Cell line sensitivity (viability, ATPlite). Conditions: Homo sapiens; SW948, Colon; BME media, 72 hours; read-out: Sensitivity to Example 1 (IC50). The protocol: as §1, §2
A further experiment relates to 22RV1. Briefly: Cell line sensitivity (viability, ATPlite). Conditions: Homo sapiens; 22RV1, Prostate; BME media, 72 hours; read-out: Sensitivity to Example 1 (IC50). The protocol:
as §1, §2

The test system of another experiment is PSN-1. Description: Cell line sensitivity (viability, ATPlite). Conditions: Homo sapiens, PSN1; PSN-1, Pancreatic; BME media, 72 hours; read-out: Sensitivity to Example 1 (IC50). The protocol:
as §1, §2

For the next experiment, the system named is A498. Description: Cell line sensitivity (viability, ATPlite). Conditions: Homo sapiens; A498, Kidney; BME media, 72 hours; read-out: Sensitivity to Example 1 (IC50). The protocol:
as §1, §2

For another experiment, the system named is MCF7. Description: Cell line sensitivity (viability, ATPlite). Conditions: Homo sapiens; MCF7, Breast; BME media, 72 hours; read-out: Sensitivity to Example 1 (IC50). The protocol: as §1, §2
The next experiment relates to PC3 cells. Description: Cell Proliferation Assay, PC3. Conditions: Homo sapiens, PC-3; PC3, BME media lacking nonessential amino acids, 72 hours, ATPlite; read-out: Percent viability (EC50), Average. The protocol:
(§3) Cells were seeded at 5000 cells per well (in 96-well plate) in BME media lacking nonessential amino acids+5% dialyzed serum. After 18 hours, DMSO or compound in 0.1% final concentration DMSO was added.
(§4) Percent viability (EC50) of A549 and PC3 cells was tested against certain exemplary compounds according to the above general procedures.

Experiment [1] concerns lung carcinoma cell lines. Description: Viability against a subset of lung carcinoma cell lines. The settings on record: certain of 6 cell lines, media lacking serine, FIG. 4C; read-out: IC50, inhibition of cell proliferation. The protocol: as §1
The next experiment has as its system A549 cells. Briefly: Cell Proliferation Assay, A549. The settings on record: Homo sapiens; A549, BME media lacking nonessential amino acids, 72 hours, ATPlite; read-out: Percent viability (EC50), Average. The protocol: as §3, §4

pEC50, pIC50: −log10 of the molar value.

As for `O=C(c1cc(C(F)(F)F)n[nH]1)N(Cc1ccc(O)cc1F)CC1CCC1` [Example 1, N-(cyclobutylmethyl)-N-(2-fluoro-4-hydroxybenzyl)-3-(trifluoromethyl)-1H-pyrazole-5-carboxamide], the pIC50 in the experiment with HCT116 was 7.00; in the experiment on PL45, less than 4.52; in the experiment with NCI-H522, less than 4.52; with Malme3M, less than 4.52; in the experiment with SW620 it was 6.70; with Gist882 it was 6.10. In addition, the pIC50 in the experiment with FaDu was less than 4.52; in the experiment with RKO, less than 4.52; in the experiment with HCT15, less than 4.52; in the experiment with A172, 5.64; in the experiment on Skov3, 5.10; in the experiment on LNCaP, less than 4.52. The pIC50 in the experiment with HT29 was 7.00; with OVCAR-3, 7.70; in the experiment on UMUC-3, less than 4.52; with Caki-1 it was 7.10; in the experiment with SW948, less than 4.52; in the experiment with 22RV1 it was less than 4.52. Also, the pIC50 is less than 4.52 in the experiment with PSN-1, less than 4.52 in the experiment with A498, less than 4.52 in the experiment on MCF7 and not above 7.00 in [1]. Further, the results for the negative logarithm of the EC50 (pEC50) with PC3 cells and in the experiment on A549 cells were 6.81 and 7.15, respectively.
